Here are results for three molecules from patent EP0688336B1, “PEPTIDE BORONIC ACID DERIVATIVES HAVING PROTEASE INHIBITING ACTIVITY” (Novartis AG, priority 1993, dated 1994).

One data set has as its system Washed human platelets. Put plainly: In vitro platelet aggregation assay induced by thrombin. The following applies: aggregation induced by 1 nM human thrombin. It is filed as cell-based. Here is the method: Washed human platelets are prepared by a modification of the method of Ardlie ([…]. 1970, 19:7-17). Washed platelet suspension (0.46 ml) is kept at 37°C and stirred at 1100 rpm. After the addition of the substance to be tested or solvent. the platelets are maintained for 2 min before aggregation is induced by 1 nM human thrombin. The extent of platelet aggregation is quantitated by the maximum aggregation amplitude and inhibition of aggregation rate observed in the absence of inhibitor.

Data set [1] relates to pooled citrated human plasma. Put plainly: In vitro coagulation assay: activated partial thromboplastin time (APTT). Type of data set: biochemical. The following applies: Actin-FS, 4 min at 37°C, CaCl2. Here is the method:
(§1) In vitro coagulation assays are performed with pooled citrated human plasma. Substance to be tested or solvent are incubated with plasma for 10 min at 37°C prior to assay. Thrombin time(TT) determinations are performed at a final thrombin concentration of 5 U/ml. Activated partial thromboplastin time (APTT) is determined by incubating 0.1 ml plasma ± substance to be tested with 0.1 ml purified soya bean phospholipid in ellagic acid (Actin-FS) for 4 min at 37°C and followed by the addition of 0.1 ml CaCl2 (50mM). […] With the compound of Example 1, prolongation of TT above 300 sec is achieved at 1.8 µM, elevation of APTT to 2x the control value is achieved at 4.4 µM.

The test system of a further data set is thrombus formation. Put plainly: Arterio-venous shunt thrombosis model. It is filed as in vivo. The following applies: rat. Here is the method:
In the arterio-venous shunt thrombosis model in the rat, a modification of the model described by Butler et al. (Blood Coag. Fibrinol., Vol. 3, (1992), page 155), the compounds of the invention prevent thrombus formation in a dose dependent manner. Using the compound of Example 1, thrombus formation is inhibited by 21% at a dose of 0.3 mg/kg i.v. and blocked by a dose of 3 mg/kg i.v.

Data set [2] concerns pooled citrated human plasma. The data set is described as follows: In vitro coagulation assay: thrombin time (TT). The following applies: final thrombin concentration 5 U/ml; 10 min at 37°C preincubation. It is filed as biochemical. Here is the method:
as §1

The next data set addresses thrombin (Homo sapiens, UniProt P00734). The following applies: cited from earlier work.
For data set [3] the following is noted: in vivo; cited from earlier work.

Structures are written as SMILES.

The term IC50 denotes the midpoint of a concentration-inhibition curve. Low values mean higher potency, high ones lower potency. Regarding `CC(C)(C)OC(=O)NC(C[Si](C)(C)C)C(=O)N1CCCC1C(=O)NC(CCCCO)B1OC2CC3CC(C3(C)C)C2(C)O1` [Example 1, Boc-D-TMSal-Pro-NH-CH[(CH2)4OH]B-OPin], in the data set with Washed human platelets, the IC50 was 3.8 nM. Further, the “concentration at which elevation of APTT to 2x the control value is achieved” value in data set [1] is given as 4.4 µM. In addition, the “thrombus formation is inhibited” value in the data set with thrombus formation (dose of 0.3 mg/kg i.v.) is on record as 21%. Besides, the thrombus formation entry with thrombus formation (dose of 3 mg/kg i.v.) was “blocked”. Further, the “concentration at which prolongation of TT above 300 sec is achieved” value in data set [2] was 1.8 µM.
As to `NC(N)=NCCC[C@H](NC(=O)[C@@H]1CCCN1C(=O)[C@H](N)Cc1ccccc1)C(=O)CCl` [D-Phe-Pro-Arg-CH2Cl], on thrombin, the inhibition in vitro is on record as ~10^-8 M.
Regarding `N=C(N)NCCC[C@@H](C=O)NC(=O)[C@@H]1CCCN1C(=O)[C@H](N)Cc1ccccc1` [D-Phe-Pro-Arginal], the inhibition in vitro on thrombin is on record as ~10^-8 M. Also, the LD50 value entry in data set [3] is on record as “quite a low”.
